These results are taken from patent US11230530B2, “Human plasma kallikrein inhibitors” (BioCryst Pharmaceuticals, Inc., priority 2014, dated 2022).

One assay concerns the target human plasma kallikrein (Homo sapiens (Human), UniProt P03952). As to the kind of experiment: Plasma kallikrein activity assay (chromogenic substrate S2302). It is filed as biochemical. The settings on record: 2 nM kallikrein, 80 μM S2302, 30° C., pH 7.8; Cheng-Prusoff; reported as ranges.
Assay [1] relates to patients with hereditary angioedema (HAE). The following applies: in vivo; cited from earlier work.

Sequence of human plasma kallikrein (P03952 whole entry, looked up): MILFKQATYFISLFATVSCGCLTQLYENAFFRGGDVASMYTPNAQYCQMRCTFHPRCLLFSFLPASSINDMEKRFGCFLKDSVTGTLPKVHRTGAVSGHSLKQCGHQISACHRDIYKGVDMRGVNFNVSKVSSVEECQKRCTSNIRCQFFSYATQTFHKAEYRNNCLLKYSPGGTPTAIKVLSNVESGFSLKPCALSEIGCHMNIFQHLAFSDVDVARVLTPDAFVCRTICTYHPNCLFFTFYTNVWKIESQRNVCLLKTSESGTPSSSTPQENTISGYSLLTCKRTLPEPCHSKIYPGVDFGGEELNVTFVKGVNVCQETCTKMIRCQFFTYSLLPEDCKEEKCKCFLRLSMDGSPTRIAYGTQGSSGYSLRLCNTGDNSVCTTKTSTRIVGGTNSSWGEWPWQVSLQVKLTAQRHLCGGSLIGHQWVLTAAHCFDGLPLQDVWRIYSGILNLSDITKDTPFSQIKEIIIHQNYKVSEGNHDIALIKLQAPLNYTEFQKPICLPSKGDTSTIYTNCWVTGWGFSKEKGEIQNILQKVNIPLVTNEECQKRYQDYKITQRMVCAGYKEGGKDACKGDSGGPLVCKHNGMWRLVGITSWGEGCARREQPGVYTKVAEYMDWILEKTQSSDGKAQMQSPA
Sequence of human plasma kallikrein (P03952 whole entry partner, looked up): as the sequence (P03952 whole entry, looked up) above
Experimental for human plasma kallikrein: Plasma kallikrein activity assay. The effect of compounds of the invention on human plasma kallikrein activity was determined using the chromogenic substrates (DiaPharma Group, Inc., West Chester, Ohio, USA). In these experiments, 2 nM kallikrein (Enzyme Research Laboratories, South Bend, Ind., USA) was incubated with 80 μM S2302 (H-D-Pro-Phe-Arg-p-nitroaniline) in the absence or presence of increasing concentrations of compounds of the invention in a final volume of 200 μL Tris-HCl buffer (200 mM NaCl; 2.5 mM CaCl2; 50 mM Tris-HCl, pH 7.8).
Data were analyzed using SigmaPlot software (Systat Software, Inc., San Jose, Calif., USA) (Four Parameter Logistic Curve).

Take `Cc1cc(C(=O)Nc2cccc(C(NCC3CC3)c3cc(O)ccc3O)c2)n(-c2cccc(CN)c2)n1` (centres unmarked) [Compound 146g, 1-(3-(Aminomethyl)phenyl)-N-(3-((cyclopropylmethylamino)(2,5-dihydroxyphenyl)methyl)phenyl)-3-methyl-1H-pyrazole-5-carboxamide]: at human plasma kallikrein, the Ki lay within 0.1 to 50 nM. As to `NC(N)=NCCC[C@@H](N)C(=O)N[C@@H](CCCN=C(N)N)C(=O)N1CCC[C@H]1C(=O)N1C[C@H](O)C[C@H]1C(=O)NCC(=O)N[C@@H](Cc1cccs1)C(=O)N[C@@H](CO)C(=O)N1Cc2ccccc2C[C@@H]1C(=O)N1[C@H](C(=O)N[C@@H](CCCN=C(N)N)C(=O)O)C[C@@H]2CCCC[C@@H]21` [Icatibant], in assay [1], the “treating HAE” value is given as “effective”.

What is called Ki is the equilibrium dissociation constant of an inhibitor or competing ligand from its target. High values mean a looser hold on the target, low ones a stronger hold on the target.
